Measurements: patent US10105357B2, “Indication of antibiotic drugs for preparation of cancer inhibition pharmaceutical composition” (LAUNX BIOMEDICAL CO., LTD., priority 2014, dated 2018)
Read-outs that look alike come from different tables or passages of the source.

Experiments:
[1] = test system: AGS (Gastric Adenocarcinoma); assay: Cell viability analysis, gastric cancer AGS; assay type: cell-based, human; settings: Homo sapiens, 72 h
[2] = test system: HL-60 (Acute Promyelocytic Leukemia); assay: Cell viability analysis, leukemia HL-60; assay type: cell-based, human; settings: Homo sapiens, HL-60, 72 h, read-out: cell viability (survival rate), HL-60, drug 10 μM, 72 hours, WST-1, OD450 nm
BxPC-3 = assay: Cell viability analysis, pancreatic cancer BxPC-3; assay type: cell-based, human; settings: Homo sapiens, BXPC-3, 72 h, read-out: The results of antibiotic drug inhibiting cancer cell lines (cell viability analysis), BxPC-3
[3] = test system: LoVo (Colorectal Adenocarcinoma); assay: Cell viability analysis, colon cancer LoVo; assay type: cell-based, human; settings: Homo sapiens, LoVo, 72 h
[4] = test system: HeLa (Cervix Adenocarcinoma); assay: Cell viability analysis, cervical cancer HeLa; assay type: cell-based, human; settings: Homo sapiens, HeLa, 72 h
AsPC-1 = assay: Cell viability analysis, pancreatic cancer AsPC-1; assay type: cell-based, human; settings: Homo sapiens, ASPC1, 72 h, read-out: The results of antibiotic drug inhibiting cancer cell lines (cell viability analysis), AsPC-1
[5] = test system: HepG2 (Hepatocellular Carcinoma); assay: Cell viability analysis, hepatic cancer HepG2; assay type: cell-based, human; settings: Homo sapiens, HepG2, 72 h
NIH: OVCAR-3 = assay: Cell viability analysis, ovarian cancer NIH: OVCAR-3; assay type: cell-based, human; settings: Homo sapiens, OVCAR-3, 72 h, read-out: The results of antibiotic drug inhibiting cancer cell lines (cell viability analysis), NIH-OVCAR-3
U-2OS = assay: Cell viability analysis, osteosarcoma U-2OS; assay type: cell-based, human; settings: Homo sapiens, U2OS, 72 h, read-out: The results of antibiotic drug inhibiting cancer cell lines (cell viability analysis), U2OS
[6] = test system: A549 (Lung Adenocarcinoma); assay: Cell viability analysis, lung cancer A549; assay type: cell-based, human; settings: Homo sapiens, A549, 72 h
[7] = test system: 786-O (Renal adenocarcinoma); assay: Cell viability analysis, renal cancer 786-O; assay type: cell-based, human; settings: Homo sapiens, 786-0, 72 h, read-out: The results of antibiotic drug inhibiting cancer cell lines (cell viability analysis), 786-O
[8] = test system: C-33A (Cervical carcinoma); assay: Cell viability analysis, cervical cancer C-33A; assay type: cell-based, human; settings: Homo sapiens, C-33-A, 72 h, read-out: The results of antibiotic drug inhibiting cancer cell lines (cell viability analysis), C-33A
[9] = test system: HCT116 (p53+) (Colorectal Carcinoma)
TOV-21G = assay: Cell viability analysis, ovarian cancer TOV-21G; assay type: cell-based, human; settings: Homo sapiens, TOV21G, 72 h, read-out: The results of antibiotic drug inhibiting cancer cell lines (cell viability analysis), TOV-21G
[10] = test system: PC3 (p53−) (Prostate Adenocarcinoma); assay: Cell viability analysis, prostate cancer PC3; assay type: cell-based, human; settings: Homo sapiens, 72 h
[11] = test system: Hep3B (hepatocellular carcinoma); assay: Cell viability analysis, hepatic cancer Hep3B; assay type: cell-based, human; settings: Homo sapiens, Hep3B, 72 h, read-out: The results of antibiotic drug inhibiting cancer cell lines (cell viability analysis), Hep3B
[12] = test system: SAS (Tongue squamous cell carcinoma); assay: Cell viability analysis, tongue cancer SAS; assay type: cell-based, human; settings: Homo sapiens, 72 h, read-out: The results of antibiotic drug inhibiting cancer cell lines (cell viability analysis), SAS
[13] = test system: TSGH-8301 (Urinary Bladder Carcinoma); assay: Cell viability analysis, bladder cancer TSGH-8301; assay type: cell-based, human; settings: Homo sapiens, 72 h
[14] = test system: MDA-MB-231 (Mammary Gland, Adenocarcinoma); assay: Cell viability analysis, breast cancer MDA-MB-231; assay type: cell-based, human; settings: Homo sapiens, MDA-MB-231, 72 h, read-out: The results of antibiotic drug inhibiting cancer cell lines (cell viability analysis), MDA-MB231
[15] = test system: A375 (Amelanotic Melanoma); assay: Cell viability analysis, skin cancer A375; assay type: cell-based, human; settings: Homo sapiens, A-375, 72 h
[16] = test system: MCF7 (Mammary Gland, Adenocarcinoma); assay: Cell viability analysis, breast cancer MCF7; assay type: cell-based, human; settings: Homo sapiens, MCF7, 72 h
cancer cell lines = assay: Cell viability analysis (WST-1) on cancer cell lines; assay type: cell-based, human; settings: drug 10 μM, 72 hours, WST-1; Table 3
[17] = test system: HI650 (Lung Adenocarcinoma); assay: Cell viability analysis, lung cancer HI650; assay type: cell-based, human; settings: Homo sapiens, NCI-H1650, 72 h
[18] = test system: MKN-45 (Gastric Adenocarcinoma); assay: Cell viability analysis, gastric cancer MKN-45; assay type: cell-based, human; settings: Homo sapiens, MKN-45, 72 h
[19] = read-out: The results of antibiotic drug inhibiting cancer cell lines (cell viability analysis), AGS, repeated experiment
[20] = read-out: cell viability (survival rate), AGS, drug 10 μM, 72 hours, WST-1, OD450 nm
[21] = read-out: The results of antibiotic drug inhibiting cancer cell lines (cell viability analysis), LoVo, repeated experiment
[22] = read-out: cell viability (survival rate), LoVo, drug 10 μM, 72 hours, WST-1, OD450 nm
[23] = read-out: The results of antibiotic drug inhibiting cancer cell lines (cell viability analysis), HeLa, repeated experiment
[24] = read-out: cell viability (survival rate), HeLa, drug 10 μM, 72 hours, WST-1, OD450 nm
[25] = read-out: The results of antibiotic drug inhibiting cancer cell lines (cell viability analysis), HepG2, HepG2, repeated experiment
[26] = read-out: cell viability (survival rate), HepG2, drug 10 μM, 72 hours, WST-1, OD450 nm
[27] = read-out: The results of antibiotic drug inhibiting cancer cell lines (cell viability analysis), A549, A549, repeated experiment
[28] = read-out: cell viability (survival rate), A549, drug 10 μM, 72 hours, WST-1, OD450 nm
[29] = read-out: The results of antibiotic drug inhibiting cancer cell lines (cell viability analysis), PC-3, PC-3, repeated experiment
[30] = read-out: cell viability (survival rate), PC3, drug 10 μM, 72 hours, WST-1, OD450 nm
[31] = read-out: The results of antibiotic drug inhibiting cancer cell lines (cell viability analysis), TSGH-8301, TSGH-8301, repeated experiment
[32] = read-out: cell viability (survival rate), TSGH, drug 10 μM, 72 hours, WST-1, OD450 nm
[33] = read-out: The results of antibiotic drug inhibiting cancer cell lines (cell viability analysis), A375, A375, repeated experiment
[34] = read-out: cell viability (survival rate), A375, drug 10 μM, 72 hours, WST-1, OD450 nm
[35] = read-out: The results of antibiotic drug inhibiting cancer cell lines (cell viability analysis), MCF-7, MCF-7, repeated experiment
[36] = read-out: cell viability (survival rate), MCF7, drug 10 μM, 72 hours, WST-1, OD450 nm
[37] = read-out: The results of antibiotic drug inhibiting cancer cell lines (cell viability analysis), H1650, H1650, repeated experiment
[38] = read-out: cell viability (survival rate), H1650, drug 10 μM, 72 hours, WST-1, OD450 nm
[39] = read-out: The results of antibiotic drug inhibiting cancer cell lines (cell viability analysis), MKN-45, MKN-45, repeated experiment
[40] = read-out: cell viability (survival rate), MKN-45, drug 10 μM, 72 hours, WST-1, OD450 nm

SMILES	viability at 10 µM [1, 19] [%]	viability at 10 µM [1, 20] [%]	viability at 10 µM [2] [%]	viability at 10 µM (BxPC-3) [%]	viability at 10 µM [3, 21] [%]	viability at 10 µM [3, 22] [%]	viability at 10 µM [4, 23] [%]	viability at 10 µM [4, 24] [%]	viability at 10 µM (AsPC-1) [%]	viability at 10 µM [5, 25] [%]	viability at 10 µM [5, 26] [%]	viability at 10 µM (NIH: OVCAR-3) [%]	viability at 10 µM (U-2OS) [%]	viability at 10 µM [6, 27] [%]	viability at 10 µM [6, 28] [%]	viability at 10 µM [7] [%]	viability at 10 µM [8] [%]	viability [9] [%]	viability at 10 µM (TOV-21G) [%]	viability at 10 µM [10, 29] [%]	other results
CC(NC(C)(C)C)C(=O)c1cccc(Cl)c1 (stereo not shown) [Amfebutamone (Bupropion), Amfebutamone]	117	30	118	79.6	115	51.4	84.5	53.4	84.3	92.3	85.1	109	92.3	69.1	59.2	103	107	78.3	97.5	87.9	viability at 10 µM [10, 30]: 62.8%; viability at 10 µM [11]: 82.1%; viability at 10 µM [12]: 110%; viability at 10 µM [13, 31]: 116%; viability at 10 µM [13, 32]: 44.9%; viability at 10 µM [14]: 80.3%; viability at 10 µM [15, 33]: 88.4%; viability at 10 µM [15, 34]: 88.2%; viability at 10 µM [16, 35]: 69%; viability at 10 µM [16, 36]: 64.7%; inhibition effect on different cancer cell lines (cancer cell lines): significant inhibition effect; viability at 10 µM [17, 37]: 96%; viability at 10 µM [17, 38]: 74.3%; viability at 10 µM [18, 39]: 103%; viability at 10 µM [18, 40]: 52.1%
Clc1ccc(COC(Cn2ccnc2)c2ccc(Cl)cc2Cl)c(Cl)c1 (stereo not shown) [Miconazole nitrate]	114	51.1	41.4	65.3	81.3	62.1	95.7	57.6	75.5	108	104	94.8	64.2	97.3	37.3	75.2	117	122	80.6	116	viability at 10 µM [10, 30]: 30.4%; viability at 10 µM [11]: 126%; viability at 10 µM [12]: 69.6%; viability at 10 µM [13, 31]: 102%; viability at 10 µM [13, 32]: 41.8%; viability at 10 µM [14]: 107%; viability at 10 µM [15, 33]: 100%; viability at 10 µM [15, 34]: 31.5%; viability at 10 µM [16, 35]: 95.6%; viability at 10 µM [16, 36]: 50.7%; inhibition effect on different cancer cell lines (cancer cell lines): significant inhibition effect; viability at 10 µM [17, 37]: 83.1%; viability at 10 µM [17, 38]: 68.8%; viability at 10 µM [18, 39]: 99.8%; viability at 10 µM [18, 40]: 45%
